# Values quoted from earlier work, collected in paper PMC4862687, “GPCRs Direct Germline Development and Somatic Gonad Function in Planarians” (PLoS Biology, 2016).
# Tests used:
# GnRH neuronal output = system: GnRH neuronal output; design: method as in PMID 3131748, PMID 24221756; details: mammals and teleosts; ref [61],[62]; cited from earlier work
# secretion of LH and GnRH = details: injection of NPY into sex steroid-primed ovariectomized rats; ref [53],[54]; cited from earlier work
# Description: (§1) NPF expression in Drosophila brain is sexually dimorphic and is believed to be centrally involved in mating behavior [52]. Also, NPF-deficient flies show a decrease in egg laying capacity, but the same effect is not observed in NPFR-1-deficient flies. […] Conversely, in intact rats, NPY has an inhibitory effect ...
# pituitary-gonadal axis = details: intact rats; ref [55]; cited from earlier work
# Description: as §1
substance,measurement,setting,value
neuropeptide Y [NPY],GnRH neuronal output,GnRH neuronal output,positively modulates GnRH neuronal output
same,LH and GnRH secretion,secretion of LH and GnRH,induces secretion of LH and GnRH
same,effect on reproduction / pituitary-gonadal axis,pituitary-gonadal axis,inhibitory effect on reproduction by suppressing the pituitary-gonadal axis
